From ChEMBL document CHEMBL1130569, “pH Dependence of the rate of DNA alkylation for (+)-duocarmycin SA and (+)-CCBI-TMI” (Bioorg Med Chem Lett, 1997)
Where “and” joins values, the source holds several entries; their conditions need not be identical. Equal entries are not always repeated. Blank lines part the entries; values can stand above or below the molecule they belong to.

Experiments:
[1] = tested on: Nucleic Acid; test: Compound was evaluated for relative rate constant for alkylation of the single high affinity site in w794 DNA at pH 7.5 10 mM NaH2PO4-Na2HPO4, 1 mM EDTA buffers.; format: nucleic-acid assay
[2] = tested on: Nucleic Acid; test: Compound was evaluated for pseudo first-order rate constant for alkylation of the single high affinity site in w794 DNA at the 6.1 pH points at 25 degrees Centigrade.; format: nucleic-acid assay
[3] = tested on: Nucleic Acid; test: Compound was evaluated for relative rate constant for alkylation of the single high affinity site in w794 DNA at the 8.0 pH points at 25 degrees Centigrade.; format: nucleic-acid assay
[4] = tested on: Nucleic Acid; test: Compound was evaluated for relative rate constant for alkylation of the single high affinity site in w794 DNA at 10 mM NaH2PO4-Na2HPO4 buffers.; format: nucleic-acid assay
[5] = tested on: Nucleic Acid; test: Compound was evaluated for relative rate constant for alkylation of the single high affinity site in w794 DNA at pH 7.5.; format: nucleic-acid assay
[6] = Compound was evaluated for first-order rate constant for acid-catalyzed solvolysis at pH 7.6; format: ADME
[7] = tested on: Nucleic Acid; test: Compound was evaluated for relative rate constant for alkylation of the single high affinity site in w794 DNA at the 6.8 pH points at 25 degrees Centigrade.; format: nucleic-acid assay
[8] = tested on: Nucleic Acid; test: Compound was evaluated for relative rate constant for alkylation of the single high affinity site in w794 DNA at pH 7.5 using 10 mM Tris, 1 mM EDTA buffers; format: nucleic-acid assay
[9] = tested on: Nucleic Acid; test: Compound was evaluated for pseudo first-order rate constant for alkylation of the single high affinity site in w794 DNA at the 8.0 pH points at 25 degrees Centigrade.; format: nucleic-acid assay
[10] = tested on: Nucleic Acid; test: Compound was evaluated for pseudo first-order rate constant for alkylation of the single high affinity site in w794 DNA at the 6.8 pH points at 25 degrees Centigrade.; format: nucleic-acid assay
[11] = tested on: Nucleic Acid; test: Compound was evaluated for relative rate constant for alkylation of the single high affinity site in w794 DNA at the 6.1 pH points at 25 degrees Centigrade.; format: nucleic-acid assay
[12] = tested on: Nucleic Acid; test: Compound was evaluated for relative rate constant for alkylation of the single high affinity site in w794 DNA at the 7.6 pH points at 25 degrees Centigrade.; format: nucleic-acid assay
[13] = tested on: Nucleic Acid; test: Compound was evaluated for relative rate constant for alkylation of the single high affinity site in w794 DNA at pH 7.5 using 10 mM Tris buffers.; format: nucleic-acid assay
[14] = tested on: Nucleic Acid; test: Compound was evaluated for pseudo first-order rate constant for alkylation of the single high affinity site in w794 DNA at the 7.6 pH points at 25 degrees Centigrade.; format: nucleic-acid assay
[15] = Half-life period for acid-catalyzed solvolysis, was determined at pH 3; format: ADME
[16] = Half-life period for DNA alkylation, was determined; format: ADME
[17] = tested on: Nucleic Acid; test: Compound was evaluated for relative rate constant for alkylation of the single high affinity site in w794 DNA at the 8.1 pH points at 25 degrees Centigrade.; format: nucleic-acid assay
[18] = tested on: Nucleic Acid; test: Compound was evaluated for relative rate constant for alkylation of the single high affinity site in w794 DNA at the 6.6 pH points at 25 degrees Centigrade.; format: nucleic-acid assay
[19] = tested on: Nucleic Acid; test: Compound was evaluated for relative rate constant for alkylation of the single high affinity site in w794 DNA at the 7.1 pH points at 25 degrees Centigrade.; format: nucleic-acid assay
[20] = tested on: Nucleic Acid; test: Compound was evaluated for relative rate constant for alkylation of the single high affinity site in w794 DNA at the 6.0 pH points at 25 degrees Centigrade.; format: nucleic-acid assay

SMILES: COc1cc2cc(C(=O)N3C[C@H]4C[C@@]45C3=CC(=O)c3ccc(C#N)cc35)[nH]c2c(OC)c1OC
- Krel [1]: 1
- k obs [2]: 0.000706 s⁻¹
- Krel [3]: 1
- Krel [4]: 1.05
- Krel [5]: 2.5
- k [6]: 2.5e-11 s⁻¹
- Krel [7]: 1.5
- Krel [8]: 1.51
- k obs [9]: 0.000278 s⁻¹
- k obs [10]: 0.000417 s⁻¹
- Krel [11]: 2.55
- Krel [12]: 1.2
- Krel [13]: 1.74
- k obs [14]: 0.000336 s⁻¹

SMILES: COc1ccc2c(c1)[C@@]13C[C@@H]1CN(C(=O)c1cc4cc(OC)c(OC)c(OC)c4[nH]1)C3=CC2=O
- Krel [5]: 1.9

SMILES: CC(C)(C)OC(=O)N1C[C@H]2C[C@@]23C1=CC(=O)c1ccc(C#N)cc13
- k [6]: 9.9e-07 s⁻¹

- k [6]: 1.75e-06 s⁻¹
SMILES: COc1ccc2c(c1)[C@@]13C[C@@H]1CN(C(=O)OC(C)(C)C)C3=CC2=O

SMILES: COc1cc2cc(C(=O)N3C[C@H]4C[C@@]45C3=CC(=O)c3ccccc35)[nH]c2c(OC)c1OC
- Krel [5]: 1

- k [6]: 1.45e-06 s⁻¹
SMILES: CC(C)(C)OC(=O)N1C[C@H]2C[C@@]23C1=CC(=O)c1ccccc13

SMILES: N#Cc1ccc2c(c1)[C@@]13C[C@@H]1CN(C(=O)c1cc4cc(NC(=O)c5cc6ccccc6[nH]5)ccc4[nH]1)C3=CC2=O
- Krel [5]: 2.5

SMILES: COC(=O)c1cc2c([nH]1)C(=O)C=C1N(C(=O)OC(C)(C)C)C[C@H]3C[C@]123
- k [6]: 1.08e-06 s⁻¹
- T1/2 [15]: 177 h

SMILES: COC(=O)c1cc2c([nH]1)C(=O)C=C1N(C(=O)c3cc4cc(OC)c(OC)c(OC)c4[nH]3)C[C@H]3C[C@]123 [DUOCARMYCIN]
- T1/2 [16]: 1.2 years
- Krel [17]: 1
- k obs [2]: 0.000283 s⁻¹
- Krel [5]: 0.9
- k [6]: 2.7e-11 s⁻¹
- Krel [18]: 1.32
- Krel [19]: 1.12
- Krel [20]: 1.89
- k obs [9]: 0.000158 s⁻¹ and 0.00015 s⁻¹
- k obs [10]: 0.000199 s⁻¹
- Krel [12]: 1.05
- k obs [14]: 0.000169 s⁻¹

SMILES: COc1ccc2c(c1)[C@@]13C[C@@H]1CN(C(=O)c1cc4cc(NC(=O)c5cc6ccccc6[nH]5)ccc4[nH]1)C3=CC2=O
- Krel [5]: 1.4

SMILES: O=C(Nc1ccc2[nH]c(C(=O)N3C[C@H]4C[C@@]45C3=CC(=O)c3ccccc35)cc2c1)c1cc2ccccc2[nH]1
- Krel [5]: 1
